This note sets out measurements from ChEMBL document CHEMBL1201862, “PubChem BioAssay data set” (2004).

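Results reflect a 48-hour exposure of cells in 96-well plates to compound at five concentrations. Abbreviation: GI50, concentration required for 50% inhibition of growth.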 Activity calls are given as the source filed them. No stated cut-off is given here; in the data, active = GI50 up to about 1.1 µM and inactive = higher.

Some test systems named below: A549; SK-OV-3; UACC-62; SF-268; UO-31; Hs-578T; LOX IMVI; CCRF-CEM; T47D; A498; RXF 393; OVCAR-4; OVCAR-8; HCT-15; RPMI-8226; SW-620; IGROV-1; MDA-MB-231.
Holding throughout (experiment): DTP human tumour cell line panel, 48 h

Take `CN(C)c1ccc(NN=C2SC(=N\c3ccccc3)/C(=N/c3ccccc3)S2)cc1`: the GI50 (in general, the concentration at which growth is held to half of that of the control) was 66.2 µM (inactive) with A549; > 100 µM (inactive) in the experiment with SK-OV-3; 9.38 µM (inactive) with UACC-62; > 100 µM (inactive) in the experiment with SF-268; 52.4 µM (inactive) in the experiment on UO-31; 57.4 µM (inactive) with Hs-578T. Besides, the GI50 in the experiment with LOX IMVI was 22.1 µM (inactive); in the experiment on CCRF-CEM, 5.2 µM (inactive); in the experiment with T47D, 12.3 µM (inactive); in the experiment with A498, 50 µM (inactive); with RXF 393, 10 µM (inactive); in the experiment on OVCAR-4, 30.2 µM (inactive). The GI50 with OVCAR-8 was 64.9 µM (inactive); in the experiment on HCT-15, 9.31 µM; in the experiment with RPMI-8226 it was > 100 µM (inactive); in the experiment with SW-620, 53 µM (inactive); with IGROV-1 it was > 100 µM (inactive).

For `COc1ccc(C[C@@H]2CN(C(=O)c3ccccc3)[C@H](Cc3ccc(O)cc3)CN2C(=O)c2ccccc2)cc1Br`, the GI50 in the experiment with A549, in the experiment on SK-OV-3, with SF-268, with UO-31, with Hs-578T and with LOX IMVI was > 100 µM (inactive) each time. The GI50 with CCRF-CEM is > 100 µM (inactive); in the experiment with T47D it was > 100 µM (inactive); with A498 it was > 100 µM (inactive); in the experiment on OVCAR-4, > 100 µM (inactive); in the experiment with OVCAR-8, > 100 µM (inactive); in the experiment on HCT-15, > 100 µM. Also, the figures for the GI50 with RPMI-8226, in the experiment on SW-620 and with IGROV-1 were 82.8 µM (inactive), > 100 µM (inactive) and > 100 µM (inactive), respectively.

As for `NS(=O)(=O)c1ccc(Nc2c3ccccc3nc3c(C(=O)NCCCN(CCO)CCO)cccc23)cc1`, the GI50 is 26.7 µM (inactive) with A549; 61.1 µM (inactive) in the experiment with MDA-MB-231; 27.2 µM (inactive) in the experiment with SK-OV-3; 17.9 µM (inactive) with UACC-62; 21.8 µM (inactive) with SF-268; > 100 µM (inactive) in the experiment on UO-31. In addition, the GI50 with Hs-578T is 19.6 µM (inactive); with LOX IMVI it was 18.8 µM (inactive); in the experiment on CCRF-CEM it was 8.41 µM (inactive); in the experiment with T47D, 15.8 µM (inactive); with A498, 47.9 µM (inactive); in the experiment with OVCAR-4 it was 31.3 µM (inactive). Also, the GI50 in the experiment on OVCAR-8 was 28.6 µM (inactive); in the experiment with HCT-15 it was > 100 µM; in the experiment on RPMI-8226 it was 22.3 µM (inactive); in the experiment with SW-620, 21.5 µM (inactive); with IGROV-1, 19.4 µM (inactive).

For `Cc1cc2c3c([nH]c2c2ccnc(C)c12)CCCC3`, the GI50 was 2.12 µM (inactive) with A549; 1.69 µM (inactive) in the experiment with MDA-MB-231; 1.85 µM (inactive) in the experiment on SK-OV-3; 1.77 µM (inactive) in the experiment with UACC-62; 3.75 µM (inactive) in the experiment on SF-268; 2.05 µM (inactive) in the experiment on UO-31. Also, the GI50 is 1.92 µM (inactive) with Hs-578T; 1.96 µM (inactive) in the experiment with LOX IMVI; 2.5 µM (inactive) in the experiment with CCRF-CEM; 2.15 µM (inactive) in the experiment on T47D; 2.24 µM (inactive) in the experiment on OVCAR-4; 2.18 µM (inactive) in the experiment on OVCAR-8. Further, the concentration for 50% growth inhibition (GI50) is 1.86 µM with HCT-15, 1.84 µM (inactive) with RPMI-8226, 1.91 µM (inactive) in the experiment with SW-620 and 2.23 µM (inactive) in the experiment with IGROV-1.

As to `O=C(C/N=C(\CN(c1ccccc1)c1ccccc1)Oc1c(Cl)cc(Cl)cc1Cl)N1c2ccccc2Sc2ccccc21`, the GI50 in the experiment with A549 is 54.5 µM (inactive); in the experiment with MDA-MB-231, > 100 µM (inactive); in the experiment with SK-OV-3 it was 29.6 µM (inactive); in the experiment on UACC-62 it was 4.61 µM (inactive); in the experiment with SF-268, 81.7 µM (inactive); in the experiment on Hs-578T, 50.9 µM (inactive). Further, the GI50 is 41.8 µM (inactive) with CCRF-CEM; 31.9 µM (inactive) in the experiment with T47D; 0.101 µM (active) with RXF 393; 88.7 µM (inactive) in the experiment with OVCAR-4; 35.4 µM (inactive) with OVCAR-8; 32.9 µM in the experiment with HCT-15. Besides, the GI50 was 62.2 µM (inactive) with RPMI-8226, 65 µM (inactive) in the experiment with SW-620 and 28.2 µM (inactive) in the experiment on IGROV-1.

Take `Cc1cc(C)nc(NS(=O)(=O)c2ccc(Nc3nncc(=O)n3N)cc2)n1`: the GI50 in the experiment with A549 was 34.8 µM (inactive); in the experiment with SK-OV-3 it was 55.7 µM (inactive); in the experiment on UACC-62 it was 19.8 µM (inactive); in the experiment on SF-268, 20.1 µM (inactive); with UO-31, 19.3 µM (inactive); in the experiment on Hs-578T it was 29.6 µM (inactive). For the same molecule, the GI50 is 14.2 µM (inactive) with LOX IMVI; 3.62 µM (inactive) with CCRF-CEM; 16.3 µM (inactive) with T47D; 45.9 µM (inactive) with A498; 18.1 µM (inactive) in the experiment with OVCAR-4; 15.4 µM (inactive) in the experiment on OVCAR-8. In addition, the GI50 in the experiment with HCT-15 is 14.5 µM; with RPMI-8226 it was 9.44 µM (inactive); in the experiment on SW-620 it was 16.2 µM (inactive); in the experiment on IGROV-1, 15.1 µM (inactive).

As to `CCOC(=O)Cn1nnc2cc(Nc3nc4ccccc4nc3C(=O)OCC)ccc21`, the GI50 in the experiment on A549 was > 100 µM (inactive); in the experiment with SK-OV-3, 50.2 µM (inactive); with UACC-62 it was > 100 µM (inactive); in the experiment with SF-268, 22.5 µM (inactive); in the experiment on UO-31, 2 µM (inactive); with Hs-578T it was 36.5 µM (inactive). Also, the GI50 in the experiment on LOX IMVI is > 100 µM (inactive); in the experiment with CCRF-CEM, > 100 µM (inactive); in the experiment with T47D, > 100 µM (inactive); with A498, 46.1 µM (inactive); with RXF 393, 18.6 µM (inactive); in the experiment with OVCAR-4, > 100 µM (inactive). The GI50 in the experiment on OVCAR-8 is 49.7 µM (inactive); in the experiment on HCT-15 it was > 100 µM; with RPMI-8226, > 100 µM (inactive); with SW-620 it was > 100 µM (inactive); in the experiment with IGROV-1, > 100 µM (inactive).

Take `COc1ccc2c(c1)N=C1CSC(c3cccc(Br)c3)N1C2` (stereo unspecified): the GI50 with A549 is 16.6 µM (inactive); in the experiment on MDA-MB-231, 17.8 µM (inactive); in the experiment with SK-OV-3, 21.3 µM (inactive); in the experiment with UACC-62, 15.2 µM (inactive); in the experiment on SF-268, 28.9 µM (inactive); with UO-31, 12.6 µM (inactive). Also, the GI50 is 26.3 µM (inactive) in the experiment with Hs-578T; 18.5 µM (inactive) in the experiment on LOX IMVI; 24 µM (inactive) with T47D; 14.6 µM (inactive) in the experiment on RXF 393; 15.9 µM (inactive) in the experiment with OVCAR-4; 23.7 µM (inactive) with OVCAR-8. Besides, the GI50 in the experiment on HCT-15 is 6.14 µM; in the experiment on RPMI-8226, 3.72 µM (inactive); in the experiment on SW-620 it was 25.5 µM (inactive); in the experiment on IGROV-1, 18.6 µM (inactive).

For the molecule `C=CCOC(=O)C[C@H](NC(=O)[C@H](Cc1ccc(O)cc1)NCC(F)(F)F)C(=O)OCC=C`, the GI50 in the experiment with A549 is > 100 µM (inactive); in the experiment on MDA-MB-231, 72.9 µM (inactive); in the experiment on SK-OV-3, > 100 µM (inactive); in the experiment with UACC-62, 40.7 µM (inactive); in the experiment on SF-268, 37.7 µM (inactive); in the experiment with UO-31, > 100 µM (inactive). Besides, the GI50 was 41.7 µM (inactive) in the experiment on Hs-578T; 65.5 µM (inactive) in the experiment on LOX IMVI; 23.6 µM (inactive) in the experiment with T47D; > 100 µM (inactive) with RXF 393; > 100 µM (inactive) in the experiment with OVCAR-4; > 100 µM (inactive) in the experiment with OVCAR-8. In addition, the GI50 in the experiment with HCT-15 is > 100 µM; in the experiment with RPMI-8226, 36.1 µM (inactive); in the experiment with SW-620 it was 54.3 µM (inactive); with IGROV-1, > 100 µM (inactive).

For the molecule `O=C(O)Cc1ccc(Nc2nc3cc(C(F)(F)F)ccc3nc2C(=O)O)cc1`, the GI50 in the experiment with A549, in the experiment on SK-OV-3, with UACC-62, with SF-268, with UO-31 and in the experiment on Hs-578T was > 100 µM (inactive) in each case. In addition, the GI50 in the experiment with LOX IMVI, in the experiment on T47D, with A498, with RXF 393, in the experiment on OVCAR-4 and in the experiment with OVCAR-8 was > 100 µM (inactive) each time. Besides, the GI50 in the experiment on HCT-15 is > 100 µM; in the experiment on SW-620 it was > 100 µM (inactive); in the experiment on IGROV-1, > 100 µM (inactive).

With `CC(=O)OC1CC[C@@]2(C)C(C1)CC(OC(C)=O)[C@@H]1C2CC(OC(C)=O)[C@]2(C)C(C(C)CC=C(c3ccc(Cl)cc3)c3ccc(Cl)cc3)CCC12` (stereo partly specified), the GI50 in the experiment with A549 is 64 µM (inactive); with MDA-MB-231, 48 µM (inactive); with SK-OV-3, > 100 µM (inactive); with SF-268, 59.3 µM (inactive); with UO-31 it was 56.2 µM (inactive); in the experiment on Hs-578T, 25.9 µM (inactive). Further, the GI50 was 16.3 µM (inactive) with CCRF-CEM; 32.1 µM (inactive) in the experiment with T47D; 76.6 µM (inactive) with OVCAR-4; 80.4 µM (inactive) with OVCAR-8; 38.1 µM in the experiment on HCT-15; 5.33 µM (inactive) in the experiment with RPMI-8226. In addition, the GI50 in the experiment on SW-620 was 49.8 µM (inactive); in the experiment on IGROV-1, > 100 µM (inactive).

Regarding `COc1ccc2c(c1O)-c1c(OC)c(OC)cc3c1[C@H](C2)[N+](C)(C)CC3`, the GI50 in the experiment with A549, in the experiment on MDA-MB-231, with SK-OV-3, with UACC-62, in the experiment with SF-268 and in the experiment on UO-31 was > 100 µM (inactive) in each case. Moreover, the GI50 in the experiment with Hs-578T, in the experiment on LOX IMVI, with CCRF-CEM, in the experiment on T47D, with A498 and with OVCAR-4 was > 100 µM (inactive) each time. The GI50 in the experiment on OVCAR-8 was > 100 µM (inactive); in the experiment with HCT-15, > 100 µM; in the experiment on RPMI-8226, > 100 µM (inactive); in the experiment with SW-620, > 100 µM (inactive); in the experiment with IGROV-1, > 100 µM (inactive).
